Some test systems named below: SNB-75; HCC 2998; SNB-19; SK-MEL-5; DMS-273; K562; HT-29; SK-MEL-2; NCI-H23; SK-OV-3; SF-268; SK-MEL-28; COLO 205; A498; NCI-H460; OVCAR-4; NCI/ADR-RES; DU-145; MCF7; MDA-N.
Common to all, as to experiment: NCI-60 cell line screen, 48 h

From ChEMBL document CHEMBL1201862, “PubChem BioAssay data set” (2004) come the findings set out here.

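Dose response: 5 concentrations. Exposure: 48 h. Format: 96-well plates. Endpoint: linear interpolation; highest concentration if not reached. Here, GI50 denotes the concentration required for 50% inhibition of growth.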 Calls of active or inactive are those of the source. Cut-off read from the data, not from the text of the source: active = GI50 up to about 1.1 µM and inactive = higher. A value given as a limit tells only on which side of the number the result lay.

As to `CCOC(=O)CC[C@@H](NC(=O)c1ccc(N[C@@H]2c3cc4c(cc3C(c3cc(OC)c(O)c(OC)c3)C3C(=O)OC[C@@H]32)OCO4)cc1)C(=O)OCC` (stereo not given in full), the GI50 in the test on SNB-75 is 0.0787 µM (active); in the test with HCC 2998, 0.136 µM (active); in the test with SNB-19, 0.0197 µM (active); with SK-MEL-5, 0.0247 µM (active); with DMS-273 it was 0.00566 µM (active); in the test on K562, 0.0469 µM (active). Moreover, the GI50 is 0.0427 µM (active) in the test with HT-29; 0.0863 µM (active) in the test on SK-MEL-2; 0.0103 µM (active) in the test with NCI-H23; 0.0144 µM (active) in the test with SK-OV-3; 0.0208 µM (active) with SF-268; 0.2 µM (active) in the test on SK-MEL-28. The GI50 was 0.119 µM (active) with COLO 205, 0.0129 µM (active) with A498 and 0.001 µM (active) in the test on NCI-H460.

As for `CC(=O)OC1(Sc2ccccc2)CC2[C@H]3COC(C)(C)O[C@H]3CC[C@@]2(C)CC1=O` (stereo not given in full), the GI50 with SNB-75 was 23.2 µM (inactive); in the test on SNB-19 it was 71.9 µM (inactive); in the test on SK-MEL-5, 21.3 µM (inactive); in the test with DMS-273, 39.6 µM (inactive); in the test on OVCAR-4, 71.6 µM (inactive); in the test on K562 it was 30.1 µM (inactive). Moreover, the GI50 with HT-29 is 88.5 µM (inactive); in the test on SK-MEL-2 it was 81.8 µM (inactive); with NCI-H23, 21.4 µM (inactive); in the test with SK-OV-3, 44.2 µM (inactive); in the test on SK-MEL-28, > 100 µM (inactive); in the test on COLO 205, 26.9 µM (inactive). In addition, the GI50 in the test with NCI-H460 is 64.1 µM (inactive).

Consider `COC(=O)n1c(CBr)c(Br)c2ccccc21`, for which the GI50 in the test with SNB-75 was 10.8 µM (inactive); with HCC 2998 it was 32.6 µM (inactive); in the test on SNB-19, 44.9 µM (inactive); with SK-MEL-5, 51.5 µM (inactive); with DMS-273, 46.2 µM (inactive); in the test on OVCAR-4, 25.8 µM (inactive). For the same compound, the GI50 is 25.4 µM (inactive) in the test with K562; 63.7 µM (inactive) in the test on HT-29; 23.3 µM (inactive) in the test on SK-MEL-2; 22.7 µM (inactive) in the test on NCI-H23; 25.6 µM (inactive) with SF-268; > 100 µM (inactive) in the test with SK-MEL-28. The GI50 with COLO 205 was > 100 µM (inactive); in the test with NCI-H460, 24.3 µM (inactive).

As for `CC1O[C@@H]2CCCCC(=O)[C@]2(C)[C@H]1C` (stereo not given in full), the GI50 in the test with SNB-75, in the test on HCC 2998, with SNB-19, with SK-MEL-5, with DMS-273 and in the test with OVCAR-4 was > 100 µM (inactive) in each case. The GI50 with K562, in the test with HT-29, in the test on SK-MEL-2, with SK-OV-3, with SK-MEL-28 and in the test on COLO 205 was > 100 µM (inactive) in each case. Besides, the GI50 in the test with NCI-H460 is > 100 µM (inactive).

With `Cc1cc(C)c2c(c1)Nc1ccccc1P2c1ccccc1` (stereo not given), the GI50 with SNB-75 was 23.7 µM (inactive); in the test with HCC 2998, 26.6 µM (inactive); in the test on SNB-19, 26.7 µM (inactive); in the test with DMS-273, 21.7 µM (inactive); with OVCAR-4, 26.9 µM (inactive); in the test with K562, 24.5 µM (inactive). For the same compound, the GI50 with HT-29 was 20.3 µM (inactive); in the test with NCI-H23, 25.9 µM (inactive); with SK-OV-3, > 100 µM (inactive); with SF-268, 59.6 µM (inactive); with SK-MEL-28, 44.1 µM (inactive); with COLO 205 it was > 100 µM (inactive). In the test with NCI-H460, the GI50 is 22.3 µM (inactive).

Consider `COC(=O)/C(C#N)=C(\Nc1ccccc1)N1CCCC1`, for which the GI50 with SNB-75, in the test on HCC 2998, with SNB-19, in the test with SK-MEL-5, in the test on OVCAR-4 and with K562 was > 100 µM (inactive) in each case. The GI50 in the test on HT-29, in the test on SK-MEL-2, with NCI-H23, in the test with NCI/ADR-RES, in the test with SK-OV-3 and in the test with SF-268 was > 100 µM (inactive) each time. The GI50 in the test on DU-145, in the test on SK-MEL-28, in the test with COLO 205, in the test on A498, with NCI-H460 and in the test with MCF7 was > 100 µM (inactive) in each case. Besides, the GI50 in the test on MDA-N was > 100 µM (inactive).

In the case of `O=C1C(Cl)C(c2cc3cc(Br)ccc3nc2Cl)N1c1ccc(F)c(Cl)c1` (stereo not given), the GI50 with SNB-75 is 8.61 µM (inactive); with HCC 2998, 11.7 µM (inactive); in the test with SNB-19, 9.73 µM (inactive); with SK-MEL-5, 9.02 µM (inactive); with OVCAR-4 it was 1.76 µM (inactive); with K562, 3.07 µM (inactive). Also, the GI50 is 10.7 µM (inactive) with HT-29; 8.83 µM (inactive) in the test on SK-MEL-2; 3.83 µM (inactive) with NCI-H23; 5.57 µM (inactive) in the test with NCI/ADR-RES; 6.75 µM (inactive) in the test with SK-OV-3; 2.99 µM (inactive) with SF-268. Moreover, the GI50 with DU-145 was 8.02 µM (inactive); in the test with SK-MEL-28 it was 14.6 µM (inactive); in the test on COLO 205 it was 6.62 µM (inactive); in the test with A498, 5.61 µM (inactive); with NCI-H460, 11.7 µM (inactive); in the test with MCF7, 5.96 µM (inactive). In addition, the GI50 with MDA-N is 7.03 µM (inactive).

`O=C(O)CO/N=C1/C(=C2/C(=O)Nc3ccccc32)Nc2ccccc21`: the GI50 is 27 µM (inactive) in the test on SNB-75; 33.1 µM (inactive) with HCC 2998; > 100 µM (inactive) in the test with SNB-19; 24.1 µM (inactive) in the test with SK-MEL-5; 48.5 µM (inactive) in the test with OVCAR-4; 79.8 µM (inactive) with K562. The GI50 is 44.5 µM (inactive) in the test on HT-29; 25.8 µM (inactive) in the test on SK-MEL-2; 31.6 µM (inactive) in the test with NCI-H23; > 100 µM (inactive) in the test with NCI/ADR-RES; 22.4 µM (inactive) in the test with SK-OV-3; 35.7 µM (inactive) in the test on SF-268. The GI50 with DU-145 was 44.3 µM (inactive); in the test on SK-MEL-28, 50.8 µM (inactive); with COLO 205, 57.5 µM (inactive); in the test with A498 it was 61.8 µM (inactive); in the test on NCI-H460, 72.8 µM (inactive); with MCF7, 36 µM (inactive). For the same compound, the GI50 in the test on MDA-N is 50.9 µM (inactive).

On to `Cn1nc(-c2cccc(-c3nn(C)/c(=N\CCO)s3)n2)s/c1=N/CCO`, for which the GI50 in the test with SNB-75, in the test on SNB-19, with SK-MEL-5, in the test on DMS-273, in the test on OVCAR-4 and in the test with K562 was > 100 µM (inactive) each time. Further, the GI50 in the test on HT-29, with NCI-H23, in the test on SF-268, in the test on SK-MEL-28, in the test on COLO 205 and in the test on A498 was > 100 µM (inactive) throughout. Besides, the GI50 with NCI-H460 was > 100 µM (inactive).

In the case of `Brc1ccc(C2CC3(c4ccccc4)ON=C(c4ccccc4)N3c3ccccc3S2)cc1` (stereo not given), the GI50 in the test on SNB-75, in the test with HCC 2998, with SNB-19, in the test with SK-MEL-5, in the test with OVCAR-4 and in the test with K562 was > 100 µM (inactive) throughout. Moreover, the GI50 with HT-29 was 9.16 µM (inactive); with SK-MEL-2 it was > 100 µM (inactive); in the test with NCI-H23, > 100 µM (inactive); in the test with NCI/ADR-RES, > 100 µM (inactive); in the test on SK-OV-3, > 100 µM (inactive); in the test on SF-268, > 100 µM (inactive). Moreover, the GI50 with DU-145, with SK-MEL-28, in the test with COLO 205, in the test on A498, in the test on NCI-H460 and in the test with MCF7 was > 100 µM (inactive) throughout. Also, the GI50 in the test with MDA-N was > 100 µM (inactive).

Regarding `Cc1c2c(n(CCc3ccc(Cl)cc3)c1C)NC(c1ccccc1)C(C#N)S2(=O)=O` (stereo not given), the GI50 in the test on SNB-75 is 44.7 µM (inactive); in the test on HCC 2998 it was > 100 µM (inactive); with SNB-19, > 100 µM (inactive); in the test on SK-MEL-5, 3.95 µM (inactive); in the test with OVCAR-4, > 70.1 µM (inactive); in the test with K562, 5.14 µM (inactive). The GI50 in the test on HT-29 is 11.9 µM (inactive); in the test on SK-MEL-2, 22.4 µM (inactive); in the test on NCI-H23, > 47.9 µM (inactive); in the test on NCI/ADR-RES, > 63 µM (inactive); in the test on SK-OV-3, > 90.6 µM (inactive); in the test on SF-268 it was 40.2 µM (inactive). Further, the GI50 in the test with DU-145 is > 60 µM (inactive); in the test on SK-MEL-28 it was > 76.6 µM (inactive); in the test on COLO 205 it was 8.36 µM (inactive); in the test with A498, > 85.7 µM (inactive); with NCI-H460 it was 44.1 µM (inactive); with MCF7, 5.14 µM (inactive). Further, the GI50 with MDA-N is 19.9 µM (inactive).

As to `O=C(Nc1c(C(F)(F)F)cc(-c2ccccc2)[nH]c1=O)N1CCOCC1`, the GI50 with SNB-75 is > 100 µM (inactive); in the test on HCC 2998, > 100 µM (inactive); in the test on SNB-19, > 100 µM (inactive); in the test on SK-MEL-5, 38.1 µM (inactive); in the test with OVCAR-4, 47.8 µM (inactive); with K562 it was > 100 µM (inactive). The GI50 with HT-29, in the test with SK-MEL-2, in the test on NCI-H23, with NCI/ADR-RES, in the test on SK-OV-3 and with SF-268 was > 100 µM (inactive) in each case. Besides, the GI50 in the test with DU-145, in the test on SK-MEL-28, in the test on COLO 205, with A498, in the test on NCI-H460 and in the test on MCF7 was > 100 µM (inactive) throughout. Besides, the GI50 in the test with MDA-N was 77.1 µM (inactive).
